Assay results reported in patent US9701664B2, “Fused 1,4-dihydrodioxin derivatives as inhibitors of heat shock transcription factor 1” (Cancer Research Technology Limited, priority 2013, dated 2017).
Read-outs that look alike come from different tables or passages of the source.

How the values were obtained:
[1] = test system: HSP72 in U2OS cells; experiment: Cell-based ELISA (Cellisa) assay, U2OS cells: inhibition of 17-AAG-induced HSP72; conditions: U2OS cells (Examples 1-168)
[2] = test system: U2OS cells; experiment: Titre Blue cell viability assay, U2OS cells; format: cell-based

IC50 [1] | IC50 [2] | Compound | IC50 ([1]; Homo sapiens) | IC50 ([2]; Homo sapiens, U2OS)
 |  | Cc1ccc(NC(=O)c2ccc3c(c2)OCCO3)cc1NC(=O)c1ccc2nc(CCN3CCOCC3)ccc2c1 [Example 144, N-(5-(2,3-dihydrobenzo[b][1,4]dioxine-6-carboxamido)-2-methylphenyl)-2-(2-morpholinoethyl)quinoline-6-carboxamide] | 60 nM | 80 nM
 |  | Cc1ccc(NC(=O)c2ccc3c(c2)OCCO3)cc1NC(=O)c1ccc2c(c1)CCCN2C [Example 143, N-(5-(2,3-dihydrobenzo[b][1,4]dioxine-6-carboxamido)-2-methylphenyl)-1-methyl-1,2,3,4-tetrahydroquinoline-6-carboxamide] | 55 nM | 26 nM
1540 nM | 859 nM | tert-butyl (44(64(5-(2,3-dihydrobenzo[b][1,4]dioxine-6-carboxamido)-2-methylphenyl)carbamoyl)quinolin-2-yl)oxy)butyl)carbamate [Example 164] |  | 
 |  | Cc1ccc(NC(=O)c2ccc3c(c2)OCCO3)cc1NC(=O)c1ccc2nc(OCCN3CCC3)ccc2c1 [Example 60, 2-(2-(azetidin-1-yl)ethoxy)-N-(5-(2,3-dihydrobenzo[b][1,4]dioxine-6-carboxamido)-2-methylphenyl)quinoline-6-carboxamide] | 16 nM | 13 nM
 |  | Cc1ccc(NC(=O)c2ccc3c(c2)OCCO3)cc1NC(=O)c1ccc2nc(COCCN3CCCC3)ccc2c1 [Example 147, N-(5-(2,3-dihydrobenzo[b][1,4]dioxine-6-carboxamido)-2-methylphenyl)-2-((2-(pyrrolidin-1-yl)ethoxy)methyl)quinoline-6-carboxamide] | 83 nM | 54 nM
 |  | Cc1ccc(NC(=O)c2ccc3c(c2)OCCO3)cc1NC(=O)c1ccc2sccc2c1 [Example 18, N-(3-(benzo[b]thiophene-5-carboxamido)-4-methylphenyl)-2,3-dihydrobenzo[b][1,4]dioxine-6-carboxamide] | 62 nM | 34 nM
 |  | Cc1ccc(NC(=O)c2ccc3c(c2)OCCO3)cc1NC(=O)c1ccc2nc(CN3CCN(C)CC3)ccc2c1 [Example 70, N-(5-(2,3-dihydrobenzo[b][1,4]dioxine-6-carboxamido)-2-methylphenyl)-2-((4-methylpiperazin-1-yl)methyl)quinoline-6-carboxamide] | 59 nM | 92 nM
 |  | O=C(Nc1ccc(Br)c(NC(=O)c2ccc3ncccc3c2)c1)c1ccc2c(c1)OCCO2 [Example 138, N-(2-bromo-5-(2,3-dihydrobenzo[b][1,4]dioxine-6-carboxamido)phenyl)quinoline-6-carboxamide] | 31 nM | 10 nM
 |  | COc1ccc2cc(C(=O)Nc3cc(NC(=O)c4ccc5c(c4)OCCO5)ccc3C)ccc2n1 [Example 29, N-(5-(2,3-dihydrobenzo[b][1,4]dioxine-6-carboxamido)-2-methylphenyl)-2-methoxyquinoline-6-carboxamide] | 499 nM | 626 nM
 |  | Cc1ccc(NC(=O)c2ccc3c(c2)OCCO3)cc1NC(=O)c1ccc2nc(COCC3CCCO3)ccc2c1 (centres unmarked) [Example 146, N-(5-(2,3-dihydrobenzo[b][1,4]dioxine-6-carboxamido)-2-methylphenyl)-2-(((tetrahydrofuran-2-yl)methoxy)methyl)quinoline-6-carboxamide] | 77 nM | 20 nM
 |  | Cc1ccc(NC(=O)c2ccc3c(c2)OCCO3)cc1NC(=O)c1ccnc(-n2cncn2)c1 [Example 96, N-(5-(2,3-dihydrobenzo[b][1,4]dioxine-6-carboxamido)-2-methylphenyl)-2-(1H-1,2,4-triazol-1-yl)isonicotinamide] | 4440 nM | 1350 nM
 |  | COc1ccc(C(=O)Nc2cc(NC(=O)c3ccc4c(c3)OCCO4)ccc2C)cc1OC [Example 5, N-(3-(3,4-dimethoxybenzamido)-4-methylphenyl)-2,3-dihydrobenzo[b][1,4]dioxine-6-carboxamide] | 53 nM | 47 nM
 |  | COc1ccc(C(=O)Nc2cc(NC(=O)c3ccc4c(c3)OCCO4)ccc2C)cc1C [Example 26, N-(3-(4-methoxy-3-methylbenzamido)-4-methylphenyl)-2,3-dihydrobenzo[b][1,4]dioxine-6-carboxamide] | 262 nM | 71 nM
 |  | N#Cc1ccc(NC(=O)c2ccc3c(c2)OCCO3)cc1NC(=O)c1ccc2ncccc2c1 [Example 140, N-(2-cyano-5-(2,3-dihydrobenzo[b][1,4]dioxine-6-carboxamido)phenyl)quinoline-6-carboxamide] | 31 nM | 34 nM
 |  | Cc1ccc(NC(=O)c2ccc3c(c2)OCCO3)cc1NC(=O)c1ccc2c(c1)COC2=O [Example 8, N-(4-methyl-3-(1-oxo-1,3-dihydroisobenzofuran-5-carboxamido)phenyl)-2,3-dihydrobenzo[b][1,4]dioxine-6-carboxamide] | 205 nM | 108 nM
 |  | Cc1ccc(NC(=O)c2ccc3c(c2)OCCO3)cc1NC(=O)c1ccc2nc(N(C)CCN3CCCC3)ccc2c1 [Example 64, N-(5-(2,3-dihydrobenzo[b][1,4]dioxine-6-carboxamido)-2-methylphenyl)-2-(methyl(2-(pyrrolidin-1-yl)ethyl)amino)quinoline-6-carboxamide] | 25 nM | 32 nM

IC50 [1] | IC50 [2] | Compound | IC50 ([1]; Homo sapiens) | IC50 ([2]; Homo sapiens, U2OS)
 |  | COc1ccnc2ccc(C(=O)Nc3cc(NC(=O)c4ccc5c(c4)OCCO5)ccc3C)cc12 [Example 11, N-(5-(2,3-dihydrobenzo[b][1,4]dioxine-6-carboxamido)-2-methylphenyl)-4-methoxyquinoline-6-carboxamide] | 38 nM | 95 nM
 |  | Cc1ccc(NC(=O)c2ccc3c(c2)OCCO3)cc1NC(=O)c1ccc2c(c1)CCC(=O)N2 [Example 103, N-(5-(2,3-dihydrobenzo[b][1,4]dioxine-6-carboxamido)-2-methylphenyl)-2-oxo-1,2,3,4-tetrahydroquinoline-6-carboxamide] | 60 nM | 74 nM
 |  | Cc1ccc(NC(=O)c2ccc3c(c2)OCCO3)cc1NC(=O)c1ccc2ncncc2c1 [Example 10, N-(5-(2,3-dihydrobenzo[b][1,4]dioxine-6-carboxamido)-2-methylphenyl)quinazoline-6-carboxamide] | 29 nM | 15 nM
 |  | Cc1ccc(NC(=O)c2cnc3c(c2)OCCO3)cc1NC(=O)c1ccc2nc(OCCN3CCCC3)ccc2c1 [Example 134, N-(4-methyl-3-(2-(2-(pyrrolidin-1-yl)ethoxy)quinoline-6-carboxamido)phenyl)-2,3-dihydro-[1,4]dioxino[2,3-b]pyridine-7-carboxamide] | 51 nM | 49 nM
 |  | Cc1ccc(NC(=O)c2ccc3c(c2)OCCO3)cc1NC(=O)c1cnc2cccc(CCN3CCCC3)c2c1 [Example 158, N-(5-(2,3-dihydrobenzo[b][1,4]dioxine-6-carboxamido)-2-methylphenyl)-5-(2-(pyrrolidin-1-yl)ethyl)quinoline-3-carboxamide] | 239 nM | 202 nM
 |  | Cc1ccc(NC(=O)c2ccc3c(c2)OCCO3)cc1NC(=O)c1ccc2nc(N)sc2c1 [Example 91, 2-amino-N-(5-(2,3-dihydrobenzo[b][1,4]dioxine-6-carboxamido)-2-methylphenyl)benzo[d]thiazole-6-carboxamide] | 70 nM | 115 nM
5 nM | 1 nM | N-(5-amino-2-((dimethylamino)methyl)phenyl)-2-methylquinoline-6-carboxamide [Example 165] |  | 
 |  | O=C(Nc1ccc(Br)c(NC(=O)c2ccc3nc(OCCN4CCCC4)ccc3c2)c1)c1ccc2c(c1)OCCO2 [Example 139, N-(2-bromo-5-(2,3-dihydrobenzo[b][1,4]dioxine-6-carboxamido)phenyl)-2-(2-(pyrrolidin-1-yl)ethoxy)quinoline-6-carboxamide] | 20 nM | 23 nM
 |  | Cc1ccc(NC(=O)c2ccc3c(c2)OCCO3)cc1NC(=O)c1ccc2nccc(C#N)c2c1 [Example 24, 4-cyano-N-(5-(2,3-dihydrobenzo[b][1,4]dioxine-6-carboxamido)-2-methylphenyl)quinoline-6-carboxamide] | 174 nM | 169 nM
 |  | Cc1ccc(NC(=O)c2ccc3c(c2)OCCO3)cc1NC(=O)c1ccc2c(c1)CCC(C)N2 (centres unmarked) [Example 152, N-(5-(2,3-dihydrobenzo[b][1,4]dioxine-6-carboxamido)-2-methylphenyl)-2-methyl-1,2,3,4-tetrahydroquinoline-6-carboxamide] | 105 nM | 153 nM
 |  | Cc1ccc(NC(=O)c2ccc3c(c2)OCCO3)cc1NC(=O)c1ccc2nc(CCN(C)C)ccc2c1 [Example 69, N-(5-(2,3-dihydrobenzo[b][1,4]dioxine-6-carboxamido)-2-methylphenyl)-2-(2-(dimethylamino)ethyl)quinoline-6-carboxamide] | 57 nM | 305 nM
 |  | Cc1ccc(NC(=O)c2ccc3c(c2)OCCO3)cc1NC(=O)c1cnc2cnccc2c1 [Example 44, N-(5-(2,3-dihydrobenzo[b][1,4]dioxine-6-carboxamido)-2-methylphenyl)-1,7-naphthyridine-3-carboxamide] | 11 nM | 24 nM
 |  | Cc1ccc2cc(C(=O)Nc3cccc(NC(=O)c4ccc5c(c4)OCCO5)c3)ccc2n1 [Example 113, N-(3-(2,3-dihydrobenzo[b][1,4]dioxine-6-carboxamido)phenyl)-2-methylquinoline-6-carboxamide] | 160 nM | 117 nM
 |  | Cc1ccc(NC(=O)c2ccc3c(c2)OCCO3)cc1NC(=O)c1ccc2nc(OCCN3CC[C@H](F)C3)ccc2c1 [Example 65, (S)—N-(5-(2,3-dihydrobenzo[b][1,4]dioxine-6-carboxamido)-2-methylphenyl)-2-(2-(3-fluoropyrrolidin-1-yl)ethoxy)quinoline-6-carboxamide] | 29 nM | 7 nM
 |  | Cc1ccc(NC(=O)c2ccc3c(c2)OCCO3)cc1NC(=O)c1ccc2c(c1)CCCC2 [Example 34, N-(4-methyl-3-(5,6,7,8-tetrahydronaphthalene-2-carboxamido)phenyl)-2,3-dihydrobenzo[b][1,4]dioxine-6-carboxamide] | 850 nM | 413 nM
